Experimental data as given in the supplement of paper PMC11451515.

Test system: SEM cells
Test: cell viability relative to DMSO control; higher = less cytotoxic
Conditions: 48 h
Method in brief: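 Three leukemia lines were tested: NOMO1 and SEM at 500 cells/well and P12-Ichikawa at 1000 cells/well. Each was adapted for at least four passages in each medium and seeded in 5 μl in 1536-well plates, and library compounds in DMSO were pin-dosed from 47 μM to 0.79 nM in 11 threefold steps. After 48 h at 37°C, CellTiter-Glo One luminescence was read. Viability is a percentage relative to DMSO wells on each plate, with cell-free wells as background.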

[1] = HPLM + 10% dialyzed FBS, 0.000781 µM
[2] = HPLM + 10% dialyzed FBS, 0.00234 µM
[3] = HPLM + 10% dialyzed FBS, 0.00702 µM
[4] = HPLM + 10% dialyzed FBS, 0.0211 µM
[5] = HPLM + 10% dialyzed FBS, 0.0632 µM
[6] = HPLM + 10% dialyzed FBS, 0.19 µM
[7] = HPLM + 10% dialyzed FBS, 0.569 µM
[8] = HPLM + 10% dialyzed FBS, 1.71 µM
[9] = HPLM + 10% dialyzed FBS, 5.12 µM
[10] = HPLM + 10% dialyzed FBS, 15.4 µM
[11] = HPLM + 10% dialyzed FBS, 46.1 µM
[12] = RPMI 5 mM glucose + 10% FBS, 0.000781 µM
[13] = RPMI 5 mM glucose + 10% FBS, 0.00234 µM
[14] = RPMI 5 mM glucose + 10% FBS, 0.00702 µM
[15] = RPMI 5 mM glucose + 10% FBS, 0.0211 µM
[16] = RPMI 5 mM glucose + 10% FBS, 0.0632 µM
[17] = RPMI 5 mM glucose + 10% FBS, 0.19 µM
[18] = RPMI 5 mM glucose + 10% FBS, 0.569 µM
[19] = RPMI 5 mM glucose + 10% FBS, 1.71 µM
[20] = RPMI 5 mM glucose + 10% FBS, 5.12 µM
[21] = RPMI 5 mM glucose + 10% FBS, 15.4 µM
[22] = RPMI 5 mM glucose + 10% FBS, 46.1 µM
[23] = RPMI 5 mM glucose + 10% dialyzed FBS, 0.000781 µM
[24] = RPMI 5 mM glucose + 10% dialyzed FBS, 0.00234 µM
[25] = RPMI 5 mM glucose + 10% dialyzed FBS, 0.00702 µM
[26] = RPMI 5 mM glucose + 10% dialyzed FBS, 0.0211 µM
[27] = RPMI 5 mM glucose + 10% dialyzed FBS, 0.0632 µM
[28] = RPMI 5 mM glucose + 10% dialyzed FBS, 0.19 µM
[29] = RPMI 5 mM glucose + 10% dialyzed FBS, 0.569 µM
[30] = RPMI 5 mM glucose + 10% dialyzed FBS, 1.71 µM
[31] = RPMI 5 mM glucose + 10% dialyzed FBS, 5.12 µM
[32] = RPMI 5 mM glucose + 10% dialyzed FBS, 15.4 µM
[33] = RPMI 5 mM glucose + 10% dialyzed FBS, 46.1 µM

Compound	cell viability [1]	cell viability [2]	cell viability [3]	cell viability [4]	cell viability [5]	cell viability [6]	cell viability [7]	cell viability [8]	cell viability [9]	cell viability [10]	cell viability [11]	cell viability [12]	cell viability [13]	cell viability [14]	cell viability [15]	cell viability [16]	cell viability [17]	cell viability [18]	cell viability [19]	cell viability [20]	cell viability [21]	cell viability [22]	cell viability [23]	cell viability [24]	cell viability [25]	cell viability [26]	cell viability [27]	cell viability [28]	cell viability [29]	cell viability [30]	cell viability [31]	cell viability [32]	cell viability [33]
O=C1CCC[C@@H]2[C@H]3CCC[N+]4([O-])CCC[C@@H](CN12)[C@@H]34 (stereo not given in full)	61.8%	68.2%	84.1%	86.2%	96.2%	94%	89.4%	92.1%	71.9%	27.1%	78.6%	84.7%	87.4%	93.9%	94.7%	89.1%	101%	96.6%	99.5%	71.5%	18.8%	86.8%	89.7%	68.5%	82.2%	97.9%	85.4%	96.6%	102%	81.4%	91.1%	24%	88.7%
CN[C@H]1[C@H](O[C@@H]2[C@H](O[C@@H]3[C@@H](O)[C@@H](O)[C@@H](NC(=N)N)[C@@H](O)[C@H]3NC(=N)N)O[C@H](C)[C@@]2(O)C=O)O[C@@H](CO)[C@@H](O)[C@H]1O	93.2%	89.9%	79.7%	80.2%	79.9%	82.2%	83.7%	57%	83.3%	82.1%	78.6%	95.1%	116%	119%	114%	114%	110%	104%	44.8%	103%	85.6%	99.3%	109%	103%	118%	114%	117%	114%	109%	80.4%	103%	111%	101%
CN1CC/C(CC1)=C3\c4ccccc4CC(=O)c2sccc23	107%	110%	127%	121%	119%	122%	127%	133%	142%	123%	110%	115%	124%	123%	114%	127%	125%	126%	116%	145%	129%	103%	117%	114%	126%	104%	119%	129%	135%	108%	128%	106%	113%
CCc1c(O)cc(O)c(C(=O)c2ccc(OCCN3CCOCC3)c(OC)c2)c1CC(=O)N(CCOC)CCOC	115%	124%	118%	120%	116%	116%	111%	103%	47.3%	25.5%	17%	122%	116%	153%	121%	143%	117%	81.9%	91.3%	40.8%	20.8%	19%	115%	103%	111%	106%	108%	105%	86.5%	68.1%	32.9%	24.1%	15%
O=[S+]([O-])(CCSSCC[S+](=O)([O-])[O][Na])[O][Na]	78.9%	95.5%	101%	65.2%	120%	104%	102%	103%	107%	108%	118%	117%	97.5%	116%	73.7%	115%	112%	119%	103%	124%	112%	111%	103%	99.9%	113%	72.8%	134%	120%	126%	120%	121%	126%	139%
O=C(O)[C@@H](c1ccc(OCc2ccc3ccccc3n2)cc1)C1CCCC1	116%	124%	122%	114%	123%	45.5%	125%	114%	43.4%	113%	95.6%	–	–	–	–	–	–	–	–	–	–	–	109%	151%	120%	127%	148%	52%	129%	124%	19.4%	114%	83.1%
CN1C2=CC(=O)/C(=N/NC(N)=O)C=C2CC1S(=O)(=O)[O-].[Na+] (stereo not given)	79.9%	110%	96.7%	103%	103%	110%	117%	105%	124%	103%	115%	109%	108%	114%	115%	103%	115%	112%	121%	128%	125%	112%	95.5%	109%	98.5%	110%	94.6%	116%	126%	114%	118%	117%	109%
N#CC1(c2ccc(NC(=O)c3cccnc3NCc3ccncc3)cc2)CCCC1	120%	123%	123%	118%	116%	102%	124%	113%	91%	80.7%	81.4%	–	–	–	–	–	–	–	–	–	–	–	–	–	–	–	–	–	–	–	–	–	–
COc1ccccc1OCCNCC(O)COc1cccc2[nH]c3ccccc3c12 (stereo not given)	114%	131%	105%	126%	115%	123%	124%	134%	115%	113%	87.3%	107%	114%	98.6%	118%	125%	123%	121%	133%	124%	96.3%	91.6%	115%	117%	91.8%	119%	120%	132%	119%	128%	118%	107%	93.5%
O=[N+]([O-])c1ccc(Nc2ccccc2-c2ccccc2)c2nonc12	71.9%	79.4%	90.5%	84.4%	63.4%	62%	68.8%	62.8%	78.1%	48.7%	26.4%	93.5%	91.7%	100%	102%	77.6%	52.2%	83.8%	48.9%	61.6%	32.2%	27%	72.6%	70.5%	80.5%	90.9%	58.8%	62.8%	64.8%	30.9%	54.4%	42.3%	26.1%
Cn1cc(-c2cnn3c(N)c(Br)c([C@@H]4CCCNC4)nc23)cn1	75.1%	93.2%	94.8%	86.4%	93.6%	93.6%	71.3%	29.1%	19.4%	16.7%	8.44%	87.4%	99.9%	101%	94.4%	91.8%	93.6%	96.6%	63%	22.4%	16.3%	7.88%	76.8%	90.9%	84.6%	88.9%	83.6%	94.2%	69.5%	31.3%	13.2%	12.8%	7.35%
C[N]1N=CC2=C1C=C(C(=C2)OC3=CC=C(NC(=O)\C4=C\C=C(\C)N(C4=O)C5=CC=C(F)C=C5)C=C3F)C6=C[NH]N=C6	98.7%	93.2%	94.4%	94.5%	62.3%	54%	48.3%	43%	11.1%	6.77%	7.19%	91.5%	100%	96.6%	84.3%	54.7%	56.1%	59.1%	38.9%	9.63%	8.07%	8.6%	98.5%	105%	97.8%	89.4%	54.5%	52.1%	50.8%	43.7%	11.4%	7.29%	7.53%
CCOc1cc(/C=C2/C(=O)N(c3ccccc3)N=C2C)cc(Cl)c1OCC(=O)OC	69.2%	85.9%	84%	82.7%	81%	90%	85.9%	89.5%	75.7%	83.6%	48.4%	86.2%	95.7%	85.2%	91.1%	82%	107%	95.6%	95.8%	90.9%	71.9%	58.6%	80%	74.3%	95%	90%	64.4%	90.6%	81.5%	86.3%	85.8%	65.9%	59%
O=C(O)CSCC(=O)NC1CCSC1=O (stereo not given)	77.6%	98.4%	91.5%	80.6%	99.3%	91.9%	112%	102%	100%	89.5%	92.6%	73.3%	87.6%	96.4%	92.9%	107%	113%	111%	104%	101%	97%	98.8%	83.4%	98.4%	100%	100%	115%	105%	107%	108%	118%	104%	94.9%
C[C@H]1C[C@H]2[C@@H]3CCC4=CC(=O)C=C[C@]4(C)[C@H]3C(=O)C[C@]2(C)[C@@]1(O)C(=O)CO	77%	81.5%	77.8%	88.9%	70.6%	99.8%	96.5%	92.7%	88.7%	81.9%	9.17%	82.3%	81.3%	90.3%	78.8%	72.5%	87%	92.5%	91.7%	71.3%	58.5%	7.21%	93.2%	85.2%	83.4%	91.1%	77.5%	101%	93.6%	97.6%	85.4%	74.4%	7.99%
C=CCc1cc(OC)c(O)c(C(=O)NCCO)c1	110%	101%	101%	103%	116%	98.7%	112%	92%	98.6%	69.3%	64.3%	97.4%	108%	108%	110%	102%	112%	98.1%	88%	99.2%	77.1%	68.6%	110%	83.8%	99.1%	102%	105%	113%	105%	103%	96.6%	78.4%	66.8%
